{"source": "patent US20140343095A1", "about": "“Methods of Diagnosing and Treating Multiple Sclerosis” (The Brigham and Women's Hospital, Inc., priority 2009, published 2014)", "key": {"[1]": {"molecular_target": "PARP-1 (Homo sapiens, UniProt P09874)", "sequence (P09874 whole entry)": "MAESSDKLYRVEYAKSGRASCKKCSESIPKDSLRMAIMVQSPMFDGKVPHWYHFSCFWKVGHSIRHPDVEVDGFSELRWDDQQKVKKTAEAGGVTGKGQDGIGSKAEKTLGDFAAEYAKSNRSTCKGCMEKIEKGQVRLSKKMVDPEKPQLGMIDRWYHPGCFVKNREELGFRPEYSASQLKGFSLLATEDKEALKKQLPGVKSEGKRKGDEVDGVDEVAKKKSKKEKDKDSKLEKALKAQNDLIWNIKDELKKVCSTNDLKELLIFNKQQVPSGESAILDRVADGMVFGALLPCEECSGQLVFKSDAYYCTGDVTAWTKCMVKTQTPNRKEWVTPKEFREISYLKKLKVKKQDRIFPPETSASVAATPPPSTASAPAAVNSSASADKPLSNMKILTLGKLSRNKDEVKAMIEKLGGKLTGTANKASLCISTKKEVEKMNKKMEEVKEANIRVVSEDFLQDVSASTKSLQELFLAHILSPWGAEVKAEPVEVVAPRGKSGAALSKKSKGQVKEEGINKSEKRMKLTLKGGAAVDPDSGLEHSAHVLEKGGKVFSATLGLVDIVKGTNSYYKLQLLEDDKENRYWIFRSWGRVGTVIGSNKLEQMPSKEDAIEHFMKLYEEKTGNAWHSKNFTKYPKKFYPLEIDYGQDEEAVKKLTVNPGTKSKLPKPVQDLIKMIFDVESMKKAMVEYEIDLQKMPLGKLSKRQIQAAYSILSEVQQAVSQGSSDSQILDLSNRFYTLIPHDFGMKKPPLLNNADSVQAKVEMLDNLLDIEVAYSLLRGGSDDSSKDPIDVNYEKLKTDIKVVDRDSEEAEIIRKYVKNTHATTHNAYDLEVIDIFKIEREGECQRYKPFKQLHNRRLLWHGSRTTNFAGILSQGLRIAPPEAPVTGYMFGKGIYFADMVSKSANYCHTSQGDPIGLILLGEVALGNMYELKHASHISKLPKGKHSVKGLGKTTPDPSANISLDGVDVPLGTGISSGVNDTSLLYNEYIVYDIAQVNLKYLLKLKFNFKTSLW", "assay": "FACS-based detection of PARP-1 activity (PAR staining) in human monocytes / PBMCs", "format": "cell-based", "design": "endogenous in cells; host or cells: human PBMCs / monocytes / dendritic cells / T and B cells from healthy controls and MS patients", "experimental": "FIGS. 11A-B are show the results of FACS-based detection of PARP-1 activity. 11A. a set of five histograms showing PAR staining (as detected by FACS) of PBMCs incubated with 15-HC alone, or in combination with AIQ, blocking antibodies to TLR2 (TLR2 BL), or IC control (TLR2 IC). 11B, a line graph showing the correlation of PAR staining as detected by FACS with PARP-1 enzymatic activity detected on PBMCs activated with different concentration of 15-HC.\n14A is a set of fifteen histograms showing PAR staining of PBMCs taken from HC (left column), RRMS (center column) or SPMS (right column) patients and unstimulated (top row) or activated with 15-HC alone (second row), or in combination with AIQ (third row), blocking antibodies to TLR2 (fourth row) or IC control (bottom row). 14B is a bar graph showing the mean fluorescence intensity (MFI)±SD of 5 samples/group from the histograms in 14A.\n15A is a set of 24 histograms showing PAR staining of PBMCs taken from HC (left column), RRMS (center column) or SPMS (right column) patients and unstimulated (top row) or activated with pgLPS (second row), polyIC (third row), ecLPS (fourth row), flagellin (row 5), imiquimod (row 6), ssRNA (row 7) or CpG (row 8). 15B is a bar graph showing the mean fluorescence intensity (MFI)±SD of 5 samples/group from the histograms in […].\nA new FACS-based method was developed to detect PARP-1 activation based on the intracellular detection of the PARP-1 product PAR with specific antibodies. Briefly, the cells were incubated with antibodies to CD16/32 to block unspecific antibody binding, and then stained for surface markers. After washing, the cells were permeabilized with Fix/Perm (BD), and then stained with rabbit anti-PAR antibodies (or control rabbit IgG) for 30′ at 4° C., followed by anti-rabbit PE for 30′ at room temperature. The samples were then analyzed by FACS."}, "[2]": {"system": "Erk / PARP-1 interaction", "assay": "Co-immunoprecipitation of ERK and PARP-1", "format": "cell-based, mouse", "conditions": "microglia and macrophages activated with 15-HC", "experimental": "5A, a bar graph showing the time course of microglial PARP-1 activation by 15-oxysterols or 7-KC. PARP-1 activity is shown as Mean±SEM. 5B, a set of eight bar graphs showing signaling pathways activated by 15-HC. Microglial cells were stimulated with 15-HC and lysed at 1, 5, and 15 minutes. Signal transduction arrays were made with the lysates and probed with phospho-specific antibodies. 15a-HC increases the phosphorylation of TAK1 (top right), IRAK (top left), Akt (second row, left), p38 MAPK (second row, right), Pyk2 (third row, left), PKC (third row, right), PI3K (bottom row, left), and Erk1/2 (bottom row, right). (Mean±SEM) 5C, a bar graph showing activation of microglial PARP-1 by 15-HC in the presence of kinase inhibitors (Mean±SEM). 5D, an immunoblot and a bar graph showing the results of co-immunoprecipitaiton of ERK and PARP-1. Microglial cells were treated with 15-HC, lysed, immunoprecipitated with antibodies to phosphorylated Erk and then the pulled down material was probed with antibodies to PARP-1.\nThus, co-immunoprecipitation studies were carried out to better characterize the mechanisms by which 15-HC activates PARP-1. Microglia and macrophages were activated with 15-HC, ERK-specific antibodies were used for immunoprecipitation, and the pulled down material was probed with antibodies to PARP-1."}}}
{"substance": "15-hydroxycholestene [15-HC]", "values": [{"measurement": "inhibition of 15-HC-induced PARP-1 activation in monocytes from healthy controls, RRMS and SPMS patients", "setting": "[1]; all three experimental groups", "result": "could be inhibited"}, {"measurement": "PAR staining (FACS)", "setting": "[1]; human monocytes activated by 15-HC", "result": "significant increase"}, {"measurement": "interaction of Erk with PARP-1", "setting": "[2]", "result": "significant interaction"}]}
